For this data set the following is noted: in the air, 40° C., relative humidity 60%. On the procedure:
In order to determine the stability of the novel crystal form of the Form C of (6S)-5-MTHF calcium salt, the crystal form was placed in the air at a temperature of 40° C. and a relative humidity of 60%, and the content of remained (6S)-5-MTHF calcium salt was periodically measured.

Where two headings read alike, the source gives them in different places.

Regarding “(6S)-5-methyltetrahydrofolate calcium salt [Form C]”, the “Stability (overall result in words)” value (up to 9 days) is “good stability”. Also, the Appearance result runs as follows: (storage 0 days) “White crystal”; (storage 3 days) “White crystal”; (storage 6 days) “White crystal”; (storage 9 days) “White crystal”. The “Content of remained (6S)-5-MTHF calcium salt” value is given as 99.5% (storage 0 days), 99.1% (storage 3 days), 99.1% (storage 6 days) and 98.4% (storage 9 days).
